Reference: patent US20040143025A1, “Carbon monoxide generating compunds for treatment of vascular, inflammatory and immune disorders” (priority 2002, published 2004)

Experiments:
aortic allografts = assay: Immunohistology of aortic grafts: infiltrating leukocytes and VSMCs; assay type: in vivo, rat; design: key: −: not present; +: low; ++: moderate; +++: frequent; conditions: day 30
Method: Immunohistological analysis. Immunohistology was performed on cryostat sections as previously described in detail. Guillot et al., J. Immunol. 164:5258-68 (2000). Immunohistological analysis of infiltrating leukocytes was performed at day 30 after transplantation using the following mouse Mab: a mixture of two anti-leukocyte CD45 Mabs (OX1 AND OX30), anti-monocyte/macrophage CD68 (ED1), anti-αβ TCR (R.7.3), anti-CD4 (W3/25), anti-CD8 α chain (OX8), anti-monomorphic class II MHC antigens (OX6), anti-CD25 (OX39) (all from ECACC, Wiltshire, UK), anti-CD54 (ICAM-1) (Seikagaku America Inc., Rockville, Mass.), anti-CD86 (B7.2) (Pharmingen, Franklin Lakes, N.J.) and an irrelevant mouse Mab (3G8, anti-human CD16). VSMCs were detected using a mouse anti-α human smooth muscle actin Mab (Sigma, St. Louis, Mo.). Slides were then incubated with a biotin-conjugated anti-mouse immunoglobulin antibody (Vector Laboratories, Burlingame, Calif.), followed by HRP-conjugated streptavidin (Vector Laboratories) and VIP substrate. IFNγ expression was analyzed using a hamster Mab (Genzyme, Cambridge, Mass.). The IP10 chemiokine was detected using a goat anti-IP10 antibody (Santa Cruz, Santa Cruz, Calif.). Rabbit antibodies were used to detect iNOS (Transduction Laboratories, Lexington, Ky.), HO-1 (Stressgen) and TGFβ1 (Promega, Madison, Wis.). Biotin-conjugated anti-hamster, anti-goat and anti-rabbit antibodies were from Jackson Immunoresearch. Binding of these antibodies was detected by incubation with HRP-conjugated streptavidin and VIP substrate. Tissue sections were counterstained with hematoxylin and lithium carbonate.

HO-1 = HO-1 enzymatic activity in liver homogenates; assay type: biochemical, rat; conditions: liver after perfusion; ZnPP = 1.5 mg/kg i.p. 24 h before harvest then CO perfusion; CO = CO only
Method: HO-1 Enzymatic Activity. Livers were homogenized on ice in a Tris-HCl lysis buffer (pH 7.4) containing 0.5% Triton X-100 and protease inhibitors. Samples were frozen in small aliquots until use. Homogenates (100 μl) were mixed with 0.8 mM NADPH, 0.8 mM glucose-6-phosphate 1.0 unit G-60P dehydrogenase, 1 mM MgCl2 and […] purified rat liver biliverdin reductase at 4° C. The reaction was initiated by the addition of hemin (final concentration 0.25 mM). The reaction mixture was incubated at 37° C. in the dark for 15 min. At the end of incubation period, any insoluble material was removed by centrifugation and supernatants were analyzed for bilirubin concentration. An extinction coefficient of 40 mM^−1 cm^−1 at A 460-530 was used to calculate the amount of bilirubin formed. Controls included naive samples in the absence of the NADPH generating system and all the ingredients of the reaction mixture in the absence of graft homogenates. Biliverdin reductase was purified from rat liver, as described in Browne and Ultrich, Mol. Pharmacol. 32:497-504 (1987).

Myeloperoxidase (MPO) = Myeloperoxidase (MPO) assay, neutrophil activity in liver tissue; design: species or system Sprague Dawley (SD) rats; conditions: liver tissue at conclusion of 2 h reperfusion with CO
Method: Myeloperoxidase (MPO) assay. MPO is a naturally occurring constituent of neutrophils and is used as a marker for neutrophil infiltration. Frozen tissue samples were thawed and suspended in an iced solution of 0.5% hexadecyltrimethyl-ammonium (Sigma) and 50 mMol potassium phosphate buffer solution (Sigma) with pH adjusted to 5. Samples are homogenized for 30 sec, centrifuged at 15,000 rpm for 15 min at 4° C. 0.1 ml of the supernatant was then mixed in solution of hydrogen peroxide-sodium acetate and tetramethyl benzidine (Sigma). The change in absorbance at 460 run was measured with a Beckman DU spectrophotometer (Beckman Institute, Fullerton, Calif.). The quantity of enzyme degrading 1 μMol peroxide per minute at 25° C. per gram of tissue was defined as one unit of MPO activity.

allogeneic OLTs = assay: In vivo detection of apoptosis in OLTs; design: species or system rat; conditions: day 10 post-transplant
Method: In vivo detection of apoptosis. A commercial in situ histochemical assay (Klenow-FragEL, Oncogene Research Products, Cambridge, Mass.) was performed to detect the DNA fragmentation characteristic of apoptosis in formalin-fixed paraffin-embedded tissue sections. In this assay, Kienow binds to exposed ends of DNA fragments generated in response to apoptotic signals and catalyzes the template-dependent addition of biotin-labeled and unlabeled deoxynucleotides. Biotinylated nucleotides are detected using a streptavidin-horse radish peroxidase (HRP) conjugate. Diaminobenzidine reacts with the labeled sample to generate an insoluble colored substrate at the site of DNA fragmentation. Counterstaining with methyl green aids in the morphological evaluation and characterization of normal and apoptotic cells. The results were scored semi-quantitatively by averaging the number of apoptotic cells per microscopic field at 200× magnification. Six fields were evaluated per tissue sample. All data are expressed as mean±SD.

[1] = Systemic COHb and blood chemistry after oral methylene chloride in rats; assay type: in vivo, rat; conditions: MC-treated rats, 500 mg/kg daily
Method: MC (Sigma, St. Louis, Mo.) was diluted in olive oil and administered orally on a daily basis (from day 0 to 30) at 500 mg/kg. This dose saturates the cytochrome P-450 oxidative system, and yields maximal COHb values of 10% COHb in venous or aortic blood. Gargas et al. and Andersen et al., supra; Wirkner et al., Toxicol. App. PharmacoL 143:83-88 (1997). […] Id. […] Kirschman, Fd. Chem. Toxic. 24:943-49 (1986); Dhillon and Von Burg, Toxicology Update 1:329-35 (1995). MC may show liver and central nervous system toxicity at higher doses and/or longer exposures. Id. COHb levels were evaluated in heparinized venous blood using the VOXimeter sensor (A-VOX Systems, San Antonio, Tex.) and expressed as the percentage of total hemoglobin. Bicarbonates, soluble CO2, total CO2 and pH were measured using standard clinical biochemistry techniques (Laboratory of Biochemistry, University Hospital of Nantes).

In the case of `[C-]#[O+]` [CO, carbon monoxide], the CD4 (aortic allografts; adventitia) is reported as “++”, the CD8 (aortic allografts; adventitia) is reported as “+” and the “CD45 (leukocytes)” value (aortic allografts; adventitia) is reported as “+++”. The “CD68 (macrophages)” value (aortic allografts; adventitia) was “+++”, the “TCRαβ (T cells)” value (aortic allografts; adventitia) was “+” and the VSMCs (aortic allografts; adventitia) was “−”. The CD4 (aortic allografts; intima) was “+”, the CD8 (aortic allografts; intima) was “+” and the “CD45 (leukocytes)” value (aortic allografts; intima) was “++”. For the same compound, the “CD68 (macrophages)” value (aortic allografts; intima) was “++”, the “TCRαβ (T cells)” value (aortic allografts; intima) was “−” and the VSMCs (aortic allografts; intima) was “−”. The CD4 (aortic allografts; media) was “−”, the CD8 (aortic allografts; media) was “−” and the “CD45 (leukocytes)” value (aortic allografts; media) was “−”. The “CD68 (macrophages)” value (aortic allografts; media) was “−”, the “TCRαβ (T cells)” value (aortic allografts; media) was “−” and the VSMCs (aortic allografts; media) was “+++”. The HO-1 enzyme activity (HO-1) was 2.25±0.18 nmol of bilirubin/mg/protein/min and the MPO activity (Myeloperoxidase (MPO)) was 1.3±0.2 U/mg.

With `ClCCl` [methylene chloride] the “TUNEL+ cells/field in allogeneic OLTs” value (allogeneic OLTs) was 4.5±2.3 and the “behavior, food consumption, gross necropsy” value [1] was “normal behavior, food consumption and no particular gross necropsy alterations”.
